# Measured values published in publication PMC3523108 (European biophysics journal : EBJ, 2009).
# Target: bovine serum albumin (BSA) (Bos taurus, UniProt P02769)
# Format: binding
# Conditions: slope of log((F0−F)/F) vs log[Q], Eq. 2; sensitizer 10^−6–7 × 10^−6 M
# bovine serum albumin (BSA), sequence (P02769 25-607): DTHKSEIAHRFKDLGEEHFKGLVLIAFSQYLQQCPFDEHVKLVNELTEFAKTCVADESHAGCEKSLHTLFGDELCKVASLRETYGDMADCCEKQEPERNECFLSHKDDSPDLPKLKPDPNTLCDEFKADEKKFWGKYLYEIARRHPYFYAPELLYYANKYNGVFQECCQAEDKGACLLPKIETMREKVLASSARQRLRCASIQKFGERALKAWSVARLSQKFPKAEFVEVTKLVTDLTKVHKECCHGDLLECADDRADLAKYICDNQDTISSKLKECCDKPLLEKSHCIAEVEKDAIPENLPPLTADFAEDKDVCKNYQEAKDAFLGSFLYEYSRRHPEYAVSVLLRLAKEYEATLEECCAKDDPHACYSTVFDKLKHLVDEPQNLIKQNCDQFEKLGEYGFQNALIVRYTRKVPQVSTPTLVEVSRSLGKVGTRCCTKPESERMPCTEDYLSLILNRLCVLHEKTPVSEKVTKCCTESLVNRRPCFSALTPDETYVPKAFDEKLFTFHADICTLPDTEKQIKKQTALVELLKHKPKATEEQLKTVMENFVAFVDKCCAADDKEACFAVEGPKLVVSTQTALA
structure (smiles),measurement,value
"C=CC1=C(C)c2cc3[nH]c(cc4nc(cc5[nH]c(cc1n2)c(C)c5CCC(=O)O)C(CCC(=O)O)=C4C)c(C)c3C=C [PP3, Protoporphyrin IX]",n (number of binding sites in BSA),0.993 ± 0.082
